From patent publication US10934274B2, “Quinoline derivatives as TAM RTK inhibitors” (Qurient Co., Ltd., priority 2015, dated 2021)

Assays:
[1] = tested on: Axl phosphorylation in transiently transfected HEK293T cells; test: Cellular Axl phosphorylation assay; type: cell-based; conditions: Homo sapiens, HEK-293T; HEK293T cells transfected with Axl, 1 hour compound treatment, Phospho-Axl vs Total-Axl
Text: Cell AXL Inhibition Assay Principle
The assay is based on the measurement of the relative amounts of Total-Axl and Phosphorylated-Axl in whole cell lysates of transiently transfected HEK293T cells. This assay is based on application of the Mesoscale western blot and subsequent electro-chemiluminescence detection. Overexpression of Axl-RTK (Receptor tyrosine kinase) by transfection leads to an increase in Axl-trans-autophosphorylation events. Upon compound treatment, the correlation of the measured values of Phosphorylated-Axl and Total Axl indicate the potential of the tested compound to inhibit Axl-phosphorylation at the given compound concentration.
Cell AXL Inhibition Assay Protocol
HEK293T cells (2.5×10^4/well) were plated in a 96 well plate and cells were transfected with pcDNA_DEST_40 Axl or pcDNA_DEST_40 by Superfact reagent (Qiagen. Co. Ltd.). After overnight, the transfection reagent of each well was removed from cells and replaced by fresh prewarmed medium. On the following day, cells were treated with the respective test compound which was diluted by the same method, as in the Axl binding assay using DMSO, for 1 hour
After incubation with the test compounds, cells in the well of the plate were lysed using Tris lysis buffer. The lysate was transferred to two plates (total-Axl and phosphor-Axl) Mesoscale high bind plates and incubated for two hours at room temperature. Afterwards the lysates were removed from the plates and the plates were blocked using Blocking buffer. Subsequently Total-Axl antibody (H-124, Santa Cruz) was transferred to one Mesoscale high bind plate, and Phospho-Axl antibody (AF2228, R&D) to the other plate. After 1 h incubation, Sulpho-Tag antibody (goat anti-rabbit, Mesoscale) was added and again incubated for 1 hour. For the measurement, 2×MSD read buffer was added to each well and the plates were analyzed with a Mesoscale Sector Imager 2400. IC50 (half the maximal inhibitory concentration) was determined relative to between the vehicle (DMSO) control group and minimum control group as transfection of the control vector (pcDNA_DEST_40).
The results after this assay are shown in table 3 for selected compounds.

TYRO3 = target: T1, TYRO3 (Homo sapiens, UniProt Q06418); test: LanthaScreen Eu kinase binding assay, TYRO3; conditions: Tracer 236
T1 construct: purchased Life Technologies
T1 sequence (Q06418 41-890): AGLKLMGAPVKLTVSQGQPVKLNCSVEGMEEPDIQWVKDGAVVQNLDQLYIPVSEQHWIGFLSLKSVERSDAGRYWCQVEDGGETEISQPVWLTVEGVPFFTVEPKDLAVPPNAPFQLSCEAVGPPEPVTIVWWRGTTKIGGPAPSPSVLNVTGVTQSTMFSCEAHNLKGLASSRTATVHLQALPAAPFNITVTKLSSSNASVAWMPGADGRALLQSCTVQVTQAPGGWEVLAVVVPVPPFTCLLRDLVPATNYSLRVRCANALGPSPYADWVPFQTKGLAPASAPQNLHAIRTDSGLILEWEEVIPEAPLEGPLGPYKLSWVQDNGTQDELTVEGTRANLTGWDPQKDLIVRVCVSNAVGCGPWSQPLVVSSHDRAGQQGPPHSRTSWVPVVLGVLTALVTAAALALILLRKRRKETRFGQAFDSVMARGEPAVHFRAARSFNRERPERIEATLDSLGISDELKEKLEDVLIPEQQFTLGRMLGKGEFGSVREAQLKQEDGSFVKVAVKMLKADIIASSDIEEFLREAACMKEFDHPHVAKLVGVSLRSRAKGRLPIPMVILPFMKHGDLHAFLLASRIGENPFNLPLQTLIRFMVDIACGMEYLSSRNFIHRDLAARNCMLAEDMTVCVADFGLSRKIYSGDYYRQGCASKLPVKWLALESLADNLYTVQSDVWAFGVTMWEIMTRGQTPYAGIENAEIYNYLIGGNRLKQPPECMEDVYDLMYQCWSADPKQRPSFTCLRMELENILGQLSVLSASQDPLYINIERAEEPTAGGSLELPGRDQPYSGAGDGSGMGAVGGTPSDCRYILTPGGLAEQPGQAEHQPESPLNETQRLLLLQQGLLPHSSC

Kd (TYRO3)	Compound	IC50 [1]
< 100 nM	CCOc1cn(-c2ccc(OC(F)(F)F)cc2Cl)nc1C(=O)Nc1ccc(Oc2ccnc3cc(OC)c(OC)cc23)c(F)c1 [Compound 189]	< 100 nM
100 to 1000 nM	CCOc1cnn(-c2cncs2)c1C(=O)Nc1ccc(Oc2ccnc3cc(OC)c(OC)cc23)cn1 [Compound 16]	100 to 1000 nM
100 to 1000 nM	CCOc1cn(-c2ncn(C)n2)nc1C(=O)Nc1ccc(Oc2ccnc3cc(OC)c(OC)cc23)cn1 [Compound 165]	< 100 nM
< 100 nM	CCOc1cn(-c2noc(C)n2)nc1C(=O)Nc1ccc(Oc2ccnc3cc(OC)c(OC)cc23)cn1 [Compound 161]	< 100 nM
100 to 1000 nM	CCOc1cn(-c2ccc(C(F)(F)F)cc2C(F)(F)F)nc1C(=O)Nc1ccc(Oc2ccnc3cc(OC)c(OC)cc23)cn1 [Compound 105]	< 100 nM
≥ 1000 nM	CCOc1cn(-c2ccc(C(C)C)cc2F)nc1C(=O)Nc1ccc(Oc2ccnc3cc(OC)c(OC)cc23)cn1 [Compound 127]	< 100 nM
≥ 1000 nM	CCOc1cn(-c2cnc(C)cn2)nc1C(=O)Nc1ccc(Oc2ccnc3cc(OC)c(OC)cc23)cn1 [Compound 160]	< 100 nM
100 to 1000 nM	CCOc1cn(-c2ccc(Cl)cc2F)nc1C(=O)Nc1ccc(Oc2ccnc3cc(OC)c(OC)cc23)cn1 [Compound 106]	< 100 nM
< 100 nM	CCOc1cn(-c2cnccc2C(C)(C)O)nc1C(=O)Nc1ccc(Oc2ccnc3cc(OC)c(OC)cc23)cn1 [Compound 184]	< 100 nM
< 100 nM	CCOc1cn(-c2nc[nH]n2)nc1C(=O)Nc1ccc(Oc2ccnc3cc(OC)c(OC)cc23)cn1 [Compound 168]	< 100 nM
≥ 1000 nM	CCOc1cn(-c2cccnc2)nc1C(=O)Nc1ccc(Oc2ccnc3cc(OC(C)CC)c(OC)cc23)cn1 (stereo not shown) [Compound 206]	< 100 nM
< 100 nM	CCOc1cn(-c2nccs2)nc1C(=O)Nc1ccc(Oc2ccnc3cc(OC)c(OC)cc23)cn1 [Compound 12]	< 100 nM
≥ 1000 nM	CCOc1cn(-c2ccc(C(F)(F)F)cc2F)nc1C(=O)Nc1ccc(Oc2ccnc3cc(OC)c(OC)cc23)cn1 [Compound 114]	< 100 nM
≥ 1000 nM	CCOc1cn(-c2ccc(OC(F)(F)F)cc2Cl)nc1C(=O)Nc1ccc(Oc2ccnc3cc(OC)c(OC(F)(F)F)cc23)cn1 [Compound 201]	100 to 1000 nM
< 100 nM	CCOc1cn(-c2ccc(F)c(CO)c2)nc1C(=O)Nc1ccc(Oc2ccnc3cc(OC)c(OC)cc23)cn1 [Compound 128]	< 100 nM
< 100 nM	CCOc1cn(-c2cnccc2C(F)(F)F)nc1C(=O)Nc1ccc(Oc2ccnc3cc(OC)c(OC)cc23)c(F)c1 [Compound 198]	< 100 nM
100 to 1000 nM	CCOc1cn(-c2cccnc2)nc1C(=O)Nc1ccc(Oc2ccnc3cc(OC(C)C)c(OC)cc23)cn1 [Compound 208]	< 100 nM
100 to 1000 nM	CCOc1cn(-c2ccc(OC(F)(F)F)cc2C)nc1C(=O)Nc1ccc(Oc2ccnc3cc(OC)c(OC)cc23)cn1 [Compound 113]	< 100 nM
< 100 nM	CCOc1cn(-c2ccc(F)cc2F)nc1C(=O)Nc1ccc(Oc2ccnc3cc(OC)c(OC)cc23)cn1 [Compound 107]	< 100 nM
< 100 nM	CCOc1cn(-c2cnccc2CCO)nc1C(=O)Nc1ccc(Oc2ccnc3cc(OC)c(OC)cc23)cn1 [Compound 181]	< 100 nM
< 100 nM	CCOc1cn(-c2ccc(F)c(CN(C)C)c2)nc1C(=O)Nc1ccc(Oc2ccnc3cc(OC)c(OC)cc23)cn1 [Compound 124]	< 100 nM
< 100 nM	CCOc1cn(-c2cnccc2C(F)(F)F)nc1C(=O)Nc1ccc(Oc2ccnc3cc(OC)c(OC)cc23)cn1 [Compound 170]	< 100 nM

Kd (TYRO3)	Compound	IC50 [1]
< 100 nM	CCOc1cn(-c2cnc(N)nc2)nc1C(=O)Nc1ccc(Oc2ccnc3cc(OC)c(OC)cc23)c(F)c1 [Compound 141]	< 100 nM
≥ 1000 nM	CCOc1cn(-c2ccc(F)cc2C)nc1C(=O)Nc1ccc(Oc2ccnc3cc(OC)c(OC)cc23)nn1 [Compound 97]	< 100 nM
< 100 nM	CCOc1cn(-c2cnc(N)nc2)nc1C(=O)Nc1ccc(Oc2ccnc3cc(OC)c(OC)cc23)cn1 [Compound 10]	< 100 nM
100 to 1000 nM	CCOc1cnn(-c2ccc(C(F)(F)F)cc2C)c1C(=O)Nc1ccc(Oc2ccnc3cc(OC)c(OC)cc23)cn1 [Compound 102]	< 100 nM
≥ 1000 nM	CCOc1cn(-c2cnc(OC)nc2)nc1C(=O)Nc1ccc(Oc2ccnc3cc(OC)c(OC)cc23)cn1 [Compound 148]	< 100 nM
< 100 nM	CCOc1cn(-c2cncs2)nc1C(=O)Nc1ccc(Oc2ccnc3cc(OC)c(OC)cc23)cn1 [Compound 14]	< 100 nM
< 100 nM	CCOc1cn(-c2ccc(Cl)cc2CC)nc1C(=O)Nc1ccc(Oc2ccnc3cc(OC)c(OC)cc23)cn1 [Compound 111]	< 100 nM
≥ 1000 nM	CCOc1cn(-c2ccnc(O)c2)nc1C(=O)Nc1ccc(Oc2ccnc3cc(OC)c(OC)cc23)cn1 [Compound 7]	≥ 1000 nM
< 100 nM	CCOc1cn(-c2cnccc2C(C)=O)nc1C(=O)Nc1ccc(Oc2ccnc3cc(OC)c(OC)cc23)cn1 [Compound 182]	< 100 nM
< 100 nM	CCOc1cn(-c2cnccc2CO)nc1C(=O)Nc1ccc(Oc2ccnc3cc(OC)c(OC)cc23)c(F)c1 [Compound 207]	< 100 nM
100 to 1000 nM	CCOc1cnn(-c2ccc(Cl)c(CN(C)C)c2)c1C(=O)Nc1ccc(Oc2ccnc3cc(OC)c(OC)cc23)cn1 [Compound 130]	< 100 nM
100 to 1000 nM	CCOc1cn(-c2c(C)cc(C)cc2C)nc1C(=O)Nc1ccc(Oc2ccnc3cc(OC)c(OC)cc23)cn1 [Compound 117]	< 100 nM
< 100 nM	CCOc1cn(-c2cnccc2C)nc1C(=O)Nc1ccc(Oc2ccnc3cc(OC)c(OC)cc23)cc1F [Compound 151]	< 100 nM
< 100 nM	CCOc1cn(-c2nccnc2C(C)(C)O)nc1C(=O)Nc1ccc(Oc2ccnc3cc(OC)c(OC)cc23)cn1 [Compound 200]	< 100 nM
< 100 nM	CCOc1cn(-c2cnccc2C(C)(O)CO)nc1C(=O)Nc1ccc(Oc2ccnc3cc(OC)c(OC)cc23)cn1 (stereo not shown) [Compound 205]	< 100 nM
< 100 nM	CCOc1cn(-c2ncc(Cl)cc2C#N)nc1C(=O)Nc1ccc(Oc2ccnc3cc(OC)c(OC)cc23)cn1 [Compound 133]	< 100 nM
< 100 nM	CCOc1cn(-c2nccnc2Cl)nc1C(=O)Nc1ccc(Oc2ccnc3cc(OC)c(OC)cc23)cn1 [Compound 177]	< 100 nM
< 100 nM	CCOc1cn(-c2cnccc2Cl)nc1C(=O)Nc1ccc(Oc2ccnc3cc(OC)c(OC)cc23)cn1 [Compound 183]	< 100 nM
< 100 nM	CCOc1cn(-c2c(C)ccnc2C)nc1C(=O)Nc1ccc(Oc2ccnc3cc(OC)c(OC)cc23)cn1 [Compound 132]	< 100 nM
≥ 1000 nM	CCOc1cn(-c2cccnc2)nc1C(=O)Nc1ccc(Oc2ccnc3cc(OC)c(OC(F)(F)F)cc23)cn1 [Compound 199]	< 100 nM
< 100 nM	CCOc1cn(-c2ccc(N)nc2)nc1C(=O)Nc1ccc(Oc2ccnc3cc(OC)c(OC)cc23)cn1 [Compound 6]	< 100 nM
< 100 nM	CCOc1cn(-c2cncnc2C2CC2)nc1C(=O)Nc1ccc(Oc2ccnc3cc(OC)c(OC)cc23)cn1 [Compound 167]	< 100 nM
